One assay concerns StAR. Kind of assay: StAR protein level in Y1 adrenal cells (immunoblot densitometry). The class given is cell-based, mouse. Here is the method:
Progesterone production and StAR protein level. Y1 cells were cultured overnight in 6-well plates at the density of 1.5×10^6 cells per well. To increase the basal level of StAR, the cells were pre-stimulated with 10 μM forskolin for 1 hour, washed twice with medium, before peptide loading. Thereafter, the cells were loaded with 50 μM of the arginine-coupled peptide for 5 hours before being treated with 5 μg/ml Actinomyocin D (Cat. No. A-9415, Sigma) for 30 min and stimulated with 10 μM forskolin (Cat. No. 344270, Calbiochem) or 10 IU/ml ACTH (Cat. No. A-6303, Sigma) for 12 hours. Media from cultures with different treatments were collected and diluted with plain medium to fall into the standard curves for the assay. Progesterone in the cell medium was measured by using either Spectria Progesterone RIA (Cat. No. 68521, Orion Diagnostica, Espoo, Finland) or DELFIA progesterone kit (Cat. No. A066-101, PerkinElmer) following the conditions recommended by the manufacture. The cells were lysed and the StAR protein was analysed by western blotting and the level measured by densiometric analysis.
StAR protein levels in the samples from Example 28 were analysed by immunoblotting. StAR consists of a 37-kDa precursor form containing an N-terminal mitochondrial targeting sequence and a processed 30-kDa mature protein (Epstein and Ormejohnson, 1991; Stocco and Sodeman, 1991). Y1 adrenal cells expressed a low basal level of StAR (FIG. 27, upper panel, lane 1). Upon forskolin stimulation, a significant increase in mature StAR protein (lane 2) occurred consistent with an increase in cholesterol transport over the mitochondrial membrane and a corresponding increase in steroid biosynthesis (bar diagram in FIG. 26). The forskolin-stimulated levels of StAR protein were reduced by 60% in MEME3-Arg11 treated cells (lane 5 and lower panel). In contrast, treatment with SM3-Arg11 reduced StAR levels by […] (lane 8, and lower panel). Thus, MEME3-Arg11 reduced StAR levels by […] as SM3-Arg11. […]
On the technique in general: In western blotting, separated proteins are transferred to a membrane and probed.

The target of another assay is T1, PKA-RIα (Mus musculus, UniProt Q9DBC7).
T1 construct: host or cells: mouse Y-1 adrenocortical cells
Kind of assay: Immunofluorescence of PKA-RIα at mitochondria in Y1 adrenal cells. It counts as cell-based. Here is the method: Mouse adrenocortical Y1 cells were obtained from ATCC (Cat. No. CCL-79) and maintained in DMEM/HAM'S F-12 (Cat. No. E15-813, PAA Laboratories GmbH, Pasching, Austria) supplemented with 100 μg/ml streptomycin, 100 U/ml penicillin and 10% (v/v) fetal calf serum in a humidified atmosphere of 5% CO2 and split by trypsination at less than 80% confluence.
Immunofluorescence analysis of cells was performed as previously described (Collas, P. et al., 1996, J. Cell Biol. 135, 1715-1725). RI was detected by using an anti-RI monoclonal antibody (Transduction Laboratories) as a primary antibody at a […] and Alexa-488 as a secondary antibody (1:600, Goat anti Mouse IgGs, Molecular Probes). Immunofluorescence was performed on Y1 cells attached to collagen/fibronectin coated coverslips. Mitochondria were stained using MitoTracker Red CMXRos (Molecular Probes) in fresh medium with incubation at 37° C. for 30 min prior to cell fixation. All cells were washed in PBS, fixed with 3% paraformaldehyde and permeabilised using 0.1% Triton X-100. Proteins were blocked in 2% BSA/PBST prior to antibody labeling. […] Alternatively, fluorescently labeled cells were examined using a Leica TCS SP1 confocal fluorescence microscope (Leica, Heidelberg, Germany) equipped with an Ar (488 nm) and two He/Ne (543 and 633 nm) laser lines. […]

Another assay concerns the target PKA-RIIα (Homo sapiens, UniProt P13861). The experiment in a line: Displacement of PKA-RII from the particulate fraction in T cells. The class given is cell-based. The arrangement: endogenous in cells; host or cells: human peripheral blood CD3+ T cells. Particulars: increasing concentrations, relative to PKCα. As to the method:
Displacement of PKA-RII from the particulate Fraction in T-cells. Negatively selected CD3^+ T-cells (20×10^6/3 ml/well) were cultured in 6-well plates with 0-50 μM Arg11-SuperAKAPIS (or 0-50 μM M3-Arg11) for 12 hours. Cells were lysed in 250 μl lysis buffer (50 mM Tris pH 7.4, 100 mM NaCl, 5 mM EDTA, 50 mM NaF, 10 mM Na-pyrofosfat, 1 mM Na3VO4, 1 mM PMSF, 0.7% triton X-100) and centrifuged at 14 000×g for 10 min. The sedimented proteins were resuspended in loading dye before being resolved by SDS/PAGE and detected by immunoblotting.
To assess the effect of MEME3-Arg11 on anchoring of PKA type II, T cells were treated with MEME3-Arg11 or Arg11-super-AKAP-is (as a positive control) and particulate fractions were isolated, followed by 10% PAGE and blotting onto a PVDF membrane (fraction no. 2-4, FIG. 17 in upper panel) and analysed by immunoblotting using antibodies against PKA-RIIα (FIG. 17, upper panel). The levels of PKA-RIIα in the particulate fractions were measured by densitometry of the autoradiograms (lower panel). The level of PKA-RIIα was set relative to that of the internal standard PKCα.

Sequence of PKA-RIIα (P13861 whole entry): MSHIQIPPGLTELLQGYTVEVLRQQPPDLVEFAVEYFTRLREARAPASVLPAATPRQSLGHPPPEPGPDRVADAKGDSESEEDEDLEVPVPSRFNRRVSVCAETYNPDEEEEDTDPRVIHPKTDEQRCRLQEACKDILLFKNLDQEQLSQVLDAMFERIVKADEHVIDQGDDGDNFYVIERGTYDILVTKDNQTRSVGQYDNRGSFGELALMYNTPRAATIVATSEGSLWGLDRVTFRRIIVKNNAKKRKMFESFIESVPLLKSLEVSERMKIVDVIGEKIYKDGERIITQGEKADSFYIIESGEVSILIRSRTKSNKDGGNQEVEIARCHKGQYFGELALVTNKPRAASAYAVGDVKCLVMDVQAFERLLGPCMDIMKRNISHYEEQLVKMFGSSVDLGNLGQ

For the substance “LEQYANQLADQIIKEATERRRRRRRRRrr [MEME3-Arg11]”, the “reduction of StAR levels relative to SM3-Arg11” value in the assay on StAR is reported as “twice as much”. Further, the “reduction of forskolin-stimulated levels of StAR protein” value with StAR (forskolin) was found to be 60%. The “basal StAR level” value with StAR (unstimulated) was “somewhat higher basal StAR level”. Besides, the “displacement of PKA-RIα from mitochondria” value at PKA-RIα is on record as “displaced from mitochondria”. Further, the “PKA-RIIα in particulate fraction” value on PKA-RIIα is reported as “No reduction in PKA-RIIα”.
